Measured values as given in patent US20200157086A1, “BENZAMIDE COMPOUNDS AND THEIR USE AS HERBICIDES” (BASF SE, priority 2017, published 2020).

How the values were obtained:
Experiment in all cases: post-emergence greenhouse test of herbicidal activity
Format in all cases: in vivo
Settings in all cases: application rate 250 g/ha, 100 = complete destruction, 0 = no damage
[1] = tested on: CHEAL (Chenopodium album)
Excerpt: (§1) The seeds of the test plants were sown separately for each species. For the post-emergence treatment, the test plants were first grown to a height of 3 to 15 cm, depending on the plant habit, and only then treated with the active ingredients which had been suspended or emulsified in water. For this purpose, the test plants were either sown directly and grown in the same containers, or they were first grown separately as seedlings and transplanted into the test containers a few days prior to treatment. Depending on the species, the plants were kept at 10-25° C. or 20-25° C., respectively. The test period extended over 2 to 4 weeks. During this time, the plants were tended, and their response to the individual treatments was evaluated. Evaluation was carried out using a scale from 0 to 100. 100 means no emergence of the plants, or complete destruction of at least the aerial moieties, and 0 means no damage, or normal course of growth. A good herbicidal activity is given at values of at least 70 and a very good herbicidal activity is given at values of at least 85. At an application rate of 250 g/ha the following compounds were tested in post-emergence tests against: […]

[2] = tested on: ECHCG (Echinocloa crus-galli)
Excerpt: as §1

[3] = tested on: AMARE (Amaranthus retroflexus)
Excerpt: as §1

[4] = tested on: ALOMY (Alopecurus myosuroiedes)
Excerpt: as §1

CCN(C)C(=O)Nc1c(Cl)ccc(C(=O)Nc2nnnn2C)c1C [compound 3, 4-chloro-3-[[ethyl(methyl)carbamoyl]amino]-2-methyl-N-(1-methyltetrazol-5-yl)benzamide] was tested, and the “herbicidal activity against CHEAL, scale from 0 to 100” value [1] was 100, the “herbicidal activity against ECHCG, scale from 0 to 100” value [2] was 100 and the “herbicidal activity against AMARE, scale from 0 to 100” value [3] was 100. For the same compound, the “herbicidal activity against ALOMY, scale from 0 to 100” value [4] was 98.
